Experiment [1] has as its target T1, Alpha-2A adrenergic receptor (Homo sapiens, UniProt P08913).
T1 sequence (P08913 whole entry): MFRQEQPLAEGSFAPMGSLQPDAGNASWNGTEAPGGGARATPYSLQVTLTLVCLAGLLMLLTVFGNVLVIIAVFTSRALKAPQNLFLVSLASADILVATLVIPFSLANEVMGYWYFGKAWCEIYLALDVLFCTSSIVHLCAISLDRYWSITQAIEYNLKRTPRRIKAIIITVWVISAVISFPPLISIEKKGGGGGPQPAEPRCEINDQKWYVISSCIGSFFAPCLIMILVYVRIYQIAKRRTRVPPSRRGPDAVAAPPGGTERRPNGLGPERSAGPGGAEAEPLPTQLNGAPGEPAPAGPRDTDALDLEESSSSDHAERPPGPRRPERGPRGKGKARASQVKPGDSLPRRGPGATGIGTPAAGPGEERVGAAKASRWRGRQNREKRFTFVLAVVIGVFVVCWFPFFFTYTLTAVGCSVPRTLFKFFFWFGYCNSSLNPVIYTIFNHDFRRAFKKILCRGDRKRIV

Experiment [2] concerns the target Gamma-aminobutyric acid receptor subunit alpha-1/alpha-2/beta-2/gamma-2 (Homo sapiens, UniProt P14867+P18507+P47869+P47870). The class given is protein-complex assay.
For experiment [3], the target named is T2, Muscarinic acetylcholine receptor M1 (Homo sapiens, UniProt P11229).
T2 sequence (P11229 whole entry): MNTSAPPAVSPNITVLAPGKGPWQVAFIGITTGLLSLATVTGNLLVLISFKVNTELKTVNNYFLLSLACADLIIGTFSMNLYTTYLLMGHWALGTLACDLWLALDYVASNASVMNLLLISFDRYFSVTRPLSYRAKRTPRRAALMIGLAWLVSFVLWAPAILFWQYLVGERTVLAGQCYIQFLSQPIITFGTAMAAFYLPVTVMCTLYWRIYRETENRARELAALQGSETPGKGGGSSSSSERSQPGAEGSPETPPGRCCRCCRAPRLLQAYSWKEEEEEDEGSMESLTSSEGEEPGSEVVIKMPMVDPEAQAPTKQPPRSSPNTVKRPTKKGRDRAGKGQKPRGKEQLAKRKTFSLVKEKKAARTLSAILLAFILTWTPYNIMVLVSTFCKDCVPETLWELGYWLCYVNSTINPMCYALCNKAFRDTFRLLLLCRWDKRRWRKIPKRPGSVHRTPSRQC
It counts as functional, cell-based.

Experiment [4] has as its target T2, Muscarinic acetylcholine receptor M1. The class given is functional, cell-based. The source holds these as a separate data set.
For experiment [5], the target named is T3, 5-hydroxytryptamine receptor 2A (Homo sapiens, UniProt P28223). It counts as functional, cell-based.
Experiment [6] deals with T3, 5-hydroxytryptamine receptor 2A. It counts as functional, cell-based. This is another data set of the same source.
Experiment [7] addresses T4, Alpha-1A adrenergic receptor (Homo sapiens, UniProt P35348).
T4 sequence (P35348 whole entry): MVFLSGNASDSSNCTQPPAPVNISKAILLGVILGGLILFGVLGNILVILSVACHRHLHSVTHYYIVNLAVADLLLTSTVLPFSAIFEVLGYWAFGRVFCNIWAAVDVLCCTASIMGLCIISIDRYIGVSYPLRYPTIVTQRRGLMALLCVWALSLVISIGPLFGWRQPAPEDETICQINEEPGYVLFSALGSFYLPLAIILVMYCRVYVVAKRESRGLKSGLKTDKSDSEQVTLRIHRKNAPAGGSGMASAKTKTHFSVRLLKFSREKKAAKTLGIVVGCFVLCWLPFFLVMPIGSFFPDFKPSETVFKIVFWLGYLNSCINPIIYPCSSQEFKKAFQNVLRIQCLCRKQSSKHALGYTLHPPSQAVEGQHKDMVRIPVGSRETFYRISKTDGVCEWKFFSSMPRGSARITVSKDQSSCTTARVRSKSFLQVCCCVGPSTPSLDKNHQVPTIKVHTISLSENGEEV
It counts as functional, cell-based.

The target in experiment [8] is T5, Gamma-aminobutyric acid receptor subunit alpha-1 (Rattus norvegicus, UniProt P62813).
Experiment [9] addresses T5, Gamma-aminobutyric acid receptor subunit alpha-1. The class given is functional.
Another experiment addresses Histamine H2 receptor (Homo sapiens, UniProt P25021). It counts as functional, cell-based.
Note: assay procedure not described here.

T5 sequence (P62813 whole entry): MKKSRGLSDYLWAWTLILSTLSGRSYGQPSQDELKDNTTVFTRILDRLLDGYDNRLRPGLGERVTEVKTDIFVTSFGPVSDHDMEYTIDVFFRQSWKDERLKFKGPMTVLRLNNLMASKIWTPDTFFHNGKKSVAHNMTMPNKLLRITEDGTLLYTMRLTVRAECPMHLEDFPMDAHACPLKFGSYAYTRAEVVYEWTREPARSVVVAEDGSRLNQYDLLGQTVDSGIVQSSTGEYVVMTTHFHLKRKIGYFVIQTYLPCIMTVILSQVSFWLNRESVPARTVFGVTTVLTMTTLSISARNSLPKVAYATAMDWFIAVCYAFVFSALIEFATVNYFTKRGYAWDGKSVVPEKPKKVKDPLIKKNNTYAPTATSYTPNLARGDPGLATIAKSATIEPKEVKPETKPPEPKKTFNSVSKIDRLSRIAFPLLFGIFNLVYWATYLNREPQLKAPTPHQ
Sequence of Gamma-aminobutyric acid receptor subunit alpha-1/alpha-2/beta-2/gamma-2 (P14867 whole entry): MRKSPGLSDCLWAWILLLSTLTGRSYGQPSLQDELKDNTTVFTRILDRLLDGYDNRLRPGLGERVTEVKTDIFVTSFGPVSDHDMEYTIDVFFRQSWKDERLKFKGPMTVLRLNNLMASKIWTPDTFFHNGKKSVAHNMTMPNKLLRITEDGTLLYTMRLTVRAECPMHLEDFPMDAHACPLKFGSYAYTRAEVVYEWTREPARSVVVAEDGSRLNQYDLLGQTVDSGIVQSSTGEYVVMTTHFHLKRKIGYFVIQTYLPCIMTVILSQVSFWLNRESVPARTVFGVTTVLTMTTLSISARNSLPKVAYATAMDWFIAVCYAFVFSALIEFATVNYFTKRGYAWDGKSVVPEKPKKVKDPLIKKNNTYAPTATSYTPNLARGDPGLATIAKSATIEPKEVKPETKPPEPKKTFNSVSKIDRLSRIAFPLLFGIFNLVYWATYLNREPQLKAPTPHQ
Sequence of Gamma-aminobutyric acid receptor subunit alpha-1/alpha-2/beta-2/gamma-2 (P47870 whole entry): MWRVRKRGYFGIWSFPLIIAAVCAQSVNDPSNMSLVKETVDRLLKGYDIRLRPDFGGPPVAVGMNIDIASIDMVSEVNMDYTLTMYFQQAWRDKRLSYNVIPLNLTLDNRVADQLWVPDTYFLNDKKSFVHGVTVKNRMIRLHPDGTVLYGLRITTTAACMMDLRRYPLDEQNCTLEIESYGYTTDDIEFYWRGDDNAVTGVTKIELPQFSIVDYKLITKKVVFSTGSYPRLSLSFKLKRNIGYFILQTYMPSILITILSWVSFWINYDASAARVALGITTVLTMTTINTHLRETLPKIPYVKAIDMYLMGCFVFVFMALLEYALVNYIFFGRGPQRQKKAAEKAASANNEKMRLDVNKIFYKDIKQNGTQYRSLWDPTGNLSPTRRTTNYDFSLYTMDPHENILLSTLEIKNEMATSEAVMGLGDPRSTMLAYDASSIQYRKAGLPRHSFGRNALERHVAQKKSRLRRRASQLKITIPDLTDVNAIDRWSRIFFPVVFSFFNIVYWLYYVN
Sequence of Gamma-aminobutyric acid receptor subunit alpha-1/alpha-2/beta-2/gamma-2 (P18507 whole entry): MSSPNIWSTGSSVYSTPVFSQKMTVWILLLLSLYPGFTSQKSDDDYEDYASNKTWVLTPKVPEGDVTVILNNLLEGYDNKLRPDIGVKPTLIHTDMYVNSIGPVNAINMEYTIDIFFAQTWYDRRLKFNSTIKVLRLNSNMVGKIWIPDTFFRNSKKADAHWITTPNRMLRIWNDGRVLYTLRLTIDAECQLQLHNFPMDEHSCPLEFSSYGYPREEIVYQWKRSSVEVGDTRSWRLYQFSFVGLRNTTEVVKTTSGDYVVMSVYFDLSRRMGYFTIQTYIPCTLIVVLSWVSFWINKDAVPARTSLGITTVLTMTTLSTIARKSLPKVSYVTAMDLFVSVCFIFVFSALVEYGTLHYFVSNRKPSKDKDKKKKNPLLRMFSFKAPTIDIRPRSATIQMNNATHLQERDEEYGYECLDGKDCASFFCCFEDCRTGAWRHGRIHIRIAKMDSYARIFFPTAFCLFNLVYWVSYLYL
Sequence of Gamma-aminobutyric acid receptor subunit alpha-1/alpha-2/beta-2/gamma-2 (P47869 whole entry): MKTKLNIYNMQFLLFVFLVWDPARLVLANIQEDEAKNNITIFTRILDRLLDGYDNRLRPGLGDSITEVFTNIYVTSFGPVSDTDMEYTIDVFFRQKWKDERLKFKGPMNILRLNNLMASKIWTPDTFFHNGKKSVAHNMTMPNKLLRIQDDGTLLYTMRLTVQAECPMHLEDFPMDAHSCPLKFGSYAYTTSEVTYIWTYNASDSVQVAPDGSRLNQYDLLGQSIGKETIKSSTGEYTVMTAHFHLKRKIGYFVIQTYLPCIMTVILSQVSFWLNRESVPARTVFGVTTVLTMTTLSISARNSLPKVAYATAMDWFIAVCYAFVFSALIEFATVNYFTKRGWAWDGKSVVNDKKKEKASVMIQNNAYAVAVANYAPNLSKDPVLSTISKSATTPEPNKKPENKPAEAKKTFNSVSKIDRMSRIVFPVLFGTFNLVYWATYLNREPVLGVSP
T3 sequence (P28223 whole entry): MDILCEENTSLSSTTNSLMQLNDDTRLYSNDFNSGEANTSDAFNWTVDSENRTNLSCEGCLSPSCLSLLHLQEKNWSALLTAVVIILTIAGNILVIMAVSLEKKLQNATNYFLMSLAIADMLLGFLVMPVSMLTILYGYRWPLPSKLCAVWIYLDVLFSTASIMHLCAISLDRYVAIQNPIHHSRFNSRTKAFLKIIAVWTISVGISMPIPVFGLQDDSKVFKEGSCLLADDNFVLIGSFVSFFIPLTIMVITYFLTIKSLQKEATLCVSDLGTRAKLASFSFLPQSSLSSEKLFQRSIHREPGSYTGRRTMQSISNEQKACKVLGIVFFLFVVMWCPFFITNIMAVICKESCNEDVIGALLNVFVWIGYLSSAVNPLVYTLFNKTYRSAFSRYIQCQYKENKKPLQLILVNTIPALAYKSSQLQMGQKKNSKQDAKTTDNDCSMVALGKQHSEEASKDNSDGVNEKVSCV
Sequence of Histamine H2 receptor (P25021 whole entry): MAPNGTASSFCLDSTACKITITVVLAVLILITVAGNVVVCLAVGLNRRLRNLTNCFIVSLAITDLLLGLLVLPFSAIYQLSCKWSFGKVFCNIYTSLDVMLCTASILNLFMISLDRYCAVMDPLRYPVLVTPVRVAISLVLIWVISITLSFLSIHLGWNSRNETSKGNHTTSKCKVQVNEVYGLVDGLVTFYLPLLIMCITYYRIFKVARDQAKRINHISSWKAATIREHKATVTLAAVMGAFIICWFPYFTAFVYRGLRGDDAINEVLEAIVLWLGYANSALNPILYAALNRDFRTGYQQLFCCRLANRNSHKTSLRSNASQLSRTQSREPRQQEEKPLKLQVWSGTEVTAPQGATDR

Regarding `N[C@@H](Cc1ccc(N(CCCl)CCCl)cc1)C(=O)O`, the AC50 in [1] is 11.2 µM; in experiment [2], over 30 µM.

Take `Cc1cnc(C(=O)O)c[n+]1[O-]` [ACIPIMOX]: the AC50 in experiment [1], in [3], in experiment [4] and in [2] was over 30 µM throughout.

`Nc1ccc(C(=O)NCC(=O)O)cc1` [AMINOHIPPURIC ACID]: the AC50 in [1], in [3], in [4] and in experiment [2] was over 30 µM throughout.

On to `C[C@H]1C[C@H]2[C@@H]3CCC4=CC(=O)C=C[C@]4(C)[C@@]3(F)[C@@H](O)C[C@]2(C)[C@@]1(O)C(=O)CO` [BETAMETHASONE], for which the half-maximal activity concentration (AC50) in experiment [1] and in experiment [2] was over 30 µM each time.

Take `O=c1[nH]c(=O)n([C@H]2C[C@H](O)[C@@H](CO)O2)cc1/C=C/Br` [BRIVUDINE]: the AC50 in [1], in experiment [3], in experiment [4] and in [2] was over 30 µM each time.

With `Nc1ccn(C[C@@H](CO)OCP(=O)(O)O)c(=O)n1` [CIDOFOVIR], the half-maximal activity concentration (AC50) in experiment [1], in experiment [3], in [4] and in experiment [2] was over 30 µM throughout.

In the case of `CC(=O)OCC(=O)[C@@]1(OC(C)=O)[C@@H](C)C[C@H]2[C@@H]3C[C@H](F)C4=CC(=O)C=C[C@]4(C)[C@@]3(F)[C@@H](O)C[C@@]21C` [DIFLORASONE DIACETATE], the half-maximal activity concentration (AC50) in experiment [1] and in [2] was over 30 µM each time.

As for `CCCCC(=O)O[C@H]1CC[C@H]2[C@@H]3CCc4cc(O)ccc4[C@H]3CC[C@]12C` [ESTRADIOL VALERATE], the AC50 in [1] was over 30 µM; in experiment [3] it was over 30 µM; in experiment [4] it was 23.1 µM; in experiment [2] it was over 10 µM.

As to `CCn1c(=O)c2c(nc(/C=C/c3ccc(OC)c(OC)c3)n2C)n(CC)c1=O` [ISTRADEFYLLINE], the AC50 was over 10 µM in experiment [1]; over 30 µM in experiment [3]; over 30 µM in experiment [4]; over 30 µM in [2]; over 30 µM in [5]; over 30 µM in experiment [6]. The compound further gave an AC50 in [7] of over 30 µM.

For `CN1CCc2c(c3ccccc3n2Cc2ccccc2)C1` [MEBHYDROLIN], the AC50 is 0.533 µM in [1], over 30 µM in [3], 1.96 µM in experiment [4] and 25.4 µM in experiment [8].

On to `Cc1ccc(Cl)c(Nc2ccccc2C(=O)O)c1Cl` [MECLOFENAMIC ACID], for which the figures for the concentration at half-maximal activity (AC50) in [1] and in experiment [2] were over 30 µM and over 3 µM, respectively.

Consider `CC(C)=CCC/C(C)=C/CC/C(C)=C/CC/C(C)=C/CC1=C(C)C(=O)c2ccccc2C1=O` [MENATETRENONE], for which the AC50 in experiment [1] is over 10 µM; in experiment [3], over 30 µM; in [4] it was over 30 µM; in experiment [8], over 30 µM.

Take `CN1CCCC(CC2c3ccccc3Sc3ccccc32)C1` (stereo not given) [METHIXENE]: the concentration at half-maximal activity (AC50) in experiment [1] is 4.82 µM; in [3] it was over 30 µM; in experiment [4], 0.0109 µM; in experiment [2], over 30 µM.

As to `CC(=O)OCC(=O)[C@@]1(O)CC[C@H]2[C@@H]3C[C@H](C)C4=CC(=O)C=C[C@]4(C)[C@H]3[C@@H](O)C[C@@]21C` [METHYLPREDNISOLONE ACETATE], the AC50 in experiment [1], in experiment [3], in experiment [4] and in experiment [8] was over 30 µM throughout.

Take `NC(=O)N/N=C/c1ccc([N+](=O)[O-])o1` [NITROFURAZONE]: the AC50 in experiment [1], in experiment [3], in experiment [4], in experiment [2] and in experiment [8] was over 30 µM throughout.

As for `C#C[C@]1(OC(C)=O)CC[C@H]2[C@@H]3CCC4=CC(=O)CC[C@@H]4[C@H]3CC[C@@]21C` [NORETHINDRONE ACETATE], the half-maximal activity concentration (AC50) was over 30 µM in experiment [1] and over 10 µM in experiment [2].

As to `O=C1Nc2ccccc2C1(c1ccc(O)cc1)c1ccc(O)cc1` [OXYPHENISATINE], the half-maximal activity concentration (AC50) in [1], in experiment [3], in experiment [4] and in experiment [8] was over 30 µM each time.

With `Cc1c(C(C)C)c(=O)n(-c2ccccc2)n1C` [PROPYPHENAZONE], the concentration at half-maximal activity (AC50) in experiment [1], in experiment [3], in experiment [4] and in experiment [2] was over 30 µM throughout.

For `Cc1ncc(CO)c(CO)c1O` [PYRIDOXINE], the AC50 in experiment [1], in experiment [3], in [4], in [2] and in experiment [8] was over 30 µM each time.

With `CNC(=O)c1cnn(-c2nc(N)c3ncn([C@@H]4O[C@H](CO)[C@@H](O)[C@H]4O)c3n2)c1` [REGADENOSON ANHYDROUS], the AC50 in [1], in experiment [3], in experiment [4] and in [8] was over 30 µM throughout.

For the compound `C[C@@H]1CN(c2c(F)c(N)c3c(=O)c(C(=O)O)cn(C4CC4)c3c2F)C[C@H](C)N1` [SPARFLOXACIN], the AC50 in experiment [1] and in [2] was over 30 µM throughout.

Consider `COc1ncnc(NS(=O)(=O)c2ccc(N)cc2)c1OC` [SULFADOXINE], for which the AC50 in [1], in [2] and in [8] was over 30 µM in each case.

As for `CC1(C)CCC(C)(C)c2cc(NC(=O)c3ccc(C(=O)O)cc3)ccc21` [TAMIBAROTENE], the AC50 was over 30 µM in experiment [1], over 30 µM in experiment [3], over 10 µM in experiment [4] and over 30 µM in experiment [8].

With `CC(C)N1CCN(c2ccc(OCC3COC(Cn4cncn4)(c4ccc(Cl)cc4Cl)O3)cc2)CC1` (stereo not given) [TERCONAZOLE], the results for the AC50 in [1] and in experiment [2] were 2 µM and over 30 µM, respectively.

As for `Cc1ccc(O)c([C@H](CCN(C(C)C)C(C)C)c2ccccc2)c1` [TOLTERODINE], the concentration at half-maximal activity (AC50) is over 30 µM in [1]; over 30 µM in experiment [3]; 0.0206 µM in [4]; over 30 µM in experiment [2]; over 30 µM in experiment [8]; over 10 µM in experiment [9]. Also, the results for the AC50 (at Histamine H2 receptor; in [7]) were over 10 µM and over 30 µM, respectively.

`COc1cc(C[C@@H]2NCCc3cc(O)c(O)cc32)cc(OC)c1OC` [TRETOQUINOL]: the concentration at half-maximal activity (AC50) was 0.829 µM in [1], over 30 µM in [3], over 30 µM in [4] and over 30 µM in experiment [2].

On to `CCOC1O[C@H]([C@@H](COCc2ccccc2)OCc2ccccc2)[C@H](OCc2ccccc2)[C@H]1O` (stereo not given in full) [TRIBENOSIDE], for which the concentration at half-maximal activity (AC50) in experiment [1] is over 30 µM; in experiment [3] it was over 30 µM; in experiment [4], 8.21 µM; in experiment [8] it was over 30 µM.

Consider `NS(=O)(=O)c1cc2c(cc1Cl)NC(C(Cl)Cl)NS2(=O)=O` (stereo not given) [TRICHLORMETHIAZIDE], for which the AC50 in [1] and in experiment [2] was over 30 µM throughout.

For `CC(CN(C)C)CN1c2ccccc2CCc2ccccc21` (stereo not given) [TRIMIPRAMINE], the values for the AC50 in [1] and in experiment [2] were 1.27 µM and over 30 µM, respectively.

As to `N[C@@H](Cc1ccc(O)cc1)C(=O)O` [TYROSINE], the AC50 in [1], in experiment [3], in experiment [4] and in [8] was over 30 µM in each case.

By AC50 is commonly meant the midpoint of the concentration-response curve, whichever way the signal moves. Higher therefore signals activity only at high concentration.

Source of the values: ChEMBL document CHEMBL5291721, “A preclinical secondary pharmacology resource illuminates target-adverse drug reaction associations of marketed drugs” (Nat Commun, 2023).
